Assays:
Bovan Goldline hens = experiment: Carotenoid contents of egg yolks from hens fed mixed carotenoids (HPLC)
Protocol: Eight Bovan Goldline hens were obtained at approximately 18 weeks of age.
When the hens were producing at least 8 eggs per day in total, the hens were isolated and fed only a commercial meal. […] The premix provided 250 mg MZ/kg feed with proportions of L 50, MZ 30, Z 20.
The yolk carotenoids were measured in mixtures prepared from all eggs collected at baseline, three and six weeks.
Yolks were individually weighed and mixed with phosphate-buffered saline and made up to 50 ml. Two ml of each suspension was mixed in a separate universal tube for each of the three batches separately and stored at −40 C.
The egg yolk suspension (0.1 ml) was mixed with 0.15 ml aqueous KOH (25 gl100 mlwater), 0.15 ml absolute ethyl alcohol and 0.1 ml echinenone (internal standard, 0.4 mg/500 ml ethyl alcohol) in a glass extraction tube and incubated at 45 C for 45 minutes.
Solutions were then cooled and mixed vigorously with 1.5 ml hexane (containing BHT500 mg/l) and centrifuged to separate the hexane and aqueous layers. One ml of the upper hexane layer was transferred to an evaporating tube and the residue was re-extracted with 1.5 ml hexane. After centrifuging, 1.5 ml of the upper layer was removed and the extracts combined and evaporated to dryness under nitrogen at 40 C. The residue was made up to 0.15 ml with mobile phase (see Ultracarb HPLC below) and 0.1 ml was injected onto a Ultra Carb Column for HLPC analysis.
Separation and quantitation of the MZ was achieved using a two column procedure.
Ultracarb procedure: Extracts prepared as described above were reconstituted in a mobile phase comprising acetonitrile:methanol (85:15 containing 0.1% triethylamine). Using the same solvent mixture at 1.5 ml/min, extracts were chromatographed isocratically using a 3 micro m Ultracarb ODS column (250×4.6 mm, Phenomenex, UK) and detected using a photodiode-array detector (model 2996, Waters Ltd) to quantify L and Z+MZ at 450 nm. Eluent that coincided with the emergence of MZ+Z was collected from the waste line and evaporated to dryness under nitrogen.
Chiral chromoatography: The Z+MZ extract was then reconstituted in 0.1 ml of hexane:isopropanol (90:10) and 50 uL was chromatographed on a 10 micro m Chiralpak® AD column (250×4.6 mm; Chiral Technologies Europe, 67404 Illkirch Cedex, France) to determine the proportion of MZ and Z isomers using gradient elution at 0.8 ml/min starting with 90% hexane and 10% isopropyl alcohol and increasing to 95% hexane in a linear gradient over 30 minutes.

[1] = Plasma carotenoids in one person consuming one egg per day (HPLC); settings: human, in vivo
Protocol: The objective of this study was to feed hens a mixture of L, MZ and Z to determine the total amount of MZ in the yolk. In addition 24 eggs collected at the end of the experiment were consumed by one subject, one egg/day and the blood MZ composition determined.
Blood (10 ml) from a human subject was collected in lithium heparin tubes at baseline, day 12 and day 24 after consumption of one egg per day and centrifuged to provide plasma subsequently stored at −40 C. Plasma, 0.25 ml was mixed with 0.2 ml sodium dodecyl sulphate, 0.4 ml ethyl acetate (internal standard). Hexane containing BHT (1.0 ml) was added and the mixture extracted vigorously for 4 minutes, centrifuged for 10 mins and 0.7 ml of the upper hexane layer removed and evaporated to dryness.
The residue was made up to 0.1 ml with mobile phase (see HPLC procedure below) and 0.05 ml was injected onto the column.

[2] = feeding 250 ppm of the carotenoid mixture for 3 weeks

SMILES | contents of egg yolks from chicken fed 250 mg/kg mixed carotenoids (Bovan Goldline hens; Weeks 0 (baseline)) | contents of egg yolks from chicken fed 250 mg/kg mixed carotenoids (Bovan Goldline hens; Weeks 3) | contents of egg yolks from chicken fed 250 mg/kg mixed carotenoids (Bovan Goldline hens; Weeks 6) | share of the yolk carotenoid content (Bovan Goldline hens; [2]) | concentration at 12 day [1] | concentration at 24 day [1] | contents of plasma in one person consuming one egg per day [1] | content of egg yolks (Bovan Goldline hens; [2])
CC1=C(/C=C/C(C)=C/C=C/C(C)=C/C=C/C=C(C)/C=C/C=C(C)/C=C/C2=C(C)C[C@@H](O)CC2(C)C)C(C)(C)C[C@H](O)C1 [Z, zeaxanthin] | 278 micro grams per yolk | 366 micro grams per yolk | 328 micro grams per yolk | 13% | – | – | – | –
CC1=C[C@H](O)CC(C)(C)[C@H]1/C=C/C(C)=C/C=C/C(C)=C/C=C/C=C(C)/C=C/C=C(C)/C=C/C1=C(C)C[C@@H](O)CC1(C)C [L, lutein] | 563 micro grams per yolk | 2100 micro grams per yolk | 2260 micro grams per yolk | circa 76% | 1.2 µM | 1.06 µM | 0.55 micro moles per litre | –
CC1=C(/C=C/C(C)=C/C=C/C(C)=C/C=C/C=C(C)/C=C/C=C(C)/C=C/C2=C(C)C[C@H](O)CC2(C)C)C(C)(C)C[C@H](O)C1 [MZ, (trans, 3R, 3′S meso)-zeaxanthin] | 0 micro grams per yolk | 315 micro grams per yolk | 272 micro grams per yolk | 11% | – | – | – | 2.78 mg MZ/yolk
